Measurements reported in patent US6090955A (priority 1994, dated 2000).

Legend:
P388 leukemia = conditions: implanted P388 leukemia; cited from earlier work
P388 cells = conditions: in vitro, free vs liposome-encapsulated vs nanoparticular taxol; cited from earlier work
human glioblastoma = conditions: 12.5 mg/kg/4 days; cited from earlier work
P388 = conditions: 12.5 mg/kg/4 days; free vs liposomal; cited from earlier work
[1] = dilution of Cremophor/alcohol solutions with physiological salt solution; cited from earlier work
B16 melanoma = conditions: implanted B16 melanoma; cited from earlier work
human breast tumors = conditions: cited from earlier work
[2] = Tolerability in MaTu-bearing nude mice (toxic deaths, body weight change, hemotoxicity); type: in vivo, Ncr:nu/nu female mice; conditions: i.p., 12.5 mg/kg/inj., treatment d 10-13
Text: |Animals: Ncr:nu/nu female

microtubuli = conditions: cited from earlier work
[3] = cited from earlier work

| Compound | antineoplastic activity (P388 leukemia) | growth inhibition of P388 cells (P388 cells) | decrease in tumor growth (human glioblastoma) | therapeutic effectiveness on P388 in vivo (P388) | stability in physiological salt solution [1] | antineoplastic activity (B16 melanoma) | antineoplastic activity (human breast tumors) | BWC (%) d10-13 [2] [%] | Toxic deaths (d): day of death ([2]; 8 nude mice) [days] | Toxic deaths (d): number ([2]; 8 nude mice) | depolymerization of microtubuli (microtubuli) | arrangement and bundling of microtubuli (microtubuli; during the whole of the cell cycle) | polymerization of microtubuli (microtubuli; from tubuli dimers) | toxicities observed in man [3] |
| --- | --- | --- | --- | --- | --- | --- | --- | --- | --- | --- | --- | --- | --- | --- |
| CC(=O)O[C@H]1C(=O)[C@@]2(C)[C@H]([C@H](OC(=O)c3ccccc3)[C@]3(O)C[C@H](OC(=O)[C@H](O)[C@@H](NC(=O)c4ccccc4)c4ccccc4)C(C)=C1C3(C)C)[C@]1(OC(C)=O)CO[C@@H]1C[C@@H]2O [Taxol] | clear antineoplastic activity | inhibited equally by all three forms of the drug | significant decrease in tumor growth | comparable in their therapeutic effectiveness | not more than 24 hours | clear antineoplastic activity | clear antineoplastic activity | -1 | 16 | 1 | stabilizes the microtubuli by inhibiting their depolymerization | abnormal arrangement and bundling of microtubuli | promotes the polymerization of microtubuli | – |
| polyethoxylated castor oil [Cremophor] | – | – | – | – | – | – | – | – | – | – | – | – | – | increased formation of chylomicrons |
